Results on 13 compounds are retold here after US9120774B2 (University of Kansas, priority 2009, dated 2015).

Common to all, as to type: cell-based
Experiment [1] deals with MCF-7 (estrogen receptor positive breast cancer cells). Kind of experiment: Anti-proliferation activity against MCF-7 cells (MTS/PMS). The settings on record: for IC50: Homo sapiens, MCF7; for fold less active than the 8-methyl derivative: MCF-7 cells. The method in brief:
(§1)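 Viability after 72 h compound treatment (1% DMSO final, 37° C., 5% CO2) measured by MTS/PMS; plating density 2000 cells/well with overnight attachment.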

For experiment [2], the system named is SkBr3 (Her2 overexpressing breast cancer cells). In words: Anti-proliferation activity against SkBr3 cells (MTS/PMS). The settings on record: Homo sapiens, SK-BR-3. The method in brief: as §1
Experiment [3] concerns LNCaP (androgen sensitive prostate cancer cells). In words: Anti-proliferation activity against LNCaP cells. To be noted: Homo sapiens, LNCaP. The procedure:
(§2) Upon completion of synthesis of library of compounds in Examples 23 and 24, the compounds were evaluated for anti-proliferative activity against SkBr3 (Her2 overexpressing breast cancer cells), MCF-7 (estrogen receptor positive breast cancer cells), HCT-116 (colon cancer cells characterized by wild-type p53), PL45 (pancreatic cancer cells), LNCaP (androgen sensitive prostate cancer cells) and PC-3 (androgen independent prostate cancer cells) cell lines. […] The monosubstituted benzamide variants improved activity.
Cells were maintained in a 1:1 mixture of Advanced DMEM/F12 (Gibco) supplemented with non-essential amino acids, L-glutamine (2 mM), streptomycin (500 ng/mL), penicillin (100 units/mL), and 10% FBS. Cells were grown to confluence in a humidified atmosphere (37° C., 5% CO2), seeded (2000/well, 100 μl) in 96-well plates, and allowed to attach overnight. Compound or GDA at varying concentrations in DMSO (1% DMSO final concentration) was added, and cells were returned to the incubator for 72 hours. At 72 hours, the number of viable cells was determined using an MTS/PMS cell proliferation kit (Promega) per the manufacturer's instructions. Cells incubated in 1% DMSO were used at 100% proliferation, and values were adjusted accordingly. IC50 values were calculated from separate experiments performed in triplicate using GraphPad Prism.

The test system of experiment [4] is PC-3 (androgen independent prostate cancer cells). Kind of experiment: Anti-proliferation activity against PC-3 cells. To be noted: Homo sapiens, PC-3. The procedure: as §2
Cells were maintained in a 1:1 mixture of Advanced DMEM/F12 (Gibco) supplemented with non-essential amino acids, L-glutamine (2 mM), streptomycin (500 ng/mL), penicillin (100 units/mL), and 10% FBS. Cells were grown to confluence in a humidified atmosphere (37° C., 5% CO2), seeded (2000/well, 100 μl) in 96-well plates, and allowed to attach overnight. […] […] Cells incubated in 1% DMSO were used at 100% proliferation, and values were adjusted accordingly. IC50 values were calculated from separate experiments performed in triplicate using GraphPad Prism.

The subject of experiment [5] is PL45 (pancreatic cancer cells). In words: Anti-proliferation activity against PL45 cells. The procedure: as §2
In experiment [6] the test system is HCT-116 (colon cancer cells characterized by wild-type p53). Kind of experiment: Anti-proliferation activity against HCT-116 cells. To be noted: Homo sapiens. The procedure: as §2
Where [7] appears, read: Table 6, 72 hours, MTS/PMS, mean ± standard deviation, read-out: IC50 MCF-7.
Setting [8] is: Table 6, 72 hours, MTS/PMS, mean ± standard deviation, read-out: IC50 SKBr3.
Setting [9] is: Table 6, 72 hours, MTS/PMS, mean ± standard deviation, read-out: IC50 LnCaP.
[10] abbreviates: Table 6, 72 hours, MTS/PMS, mean ± standard deviation, read-out: IC50 PC-3.
Where [11] appears, read: Table 7, 72 hours, MTS/PMS, mean ± standard deviation, read-out: Anti-proliferation activity MCF-7.
[12] abbreviates: Table 7, 72 hours, MTS/PMS, mean ± standard deviation, read-out: Anti-proliferation activity SkBr3.
Where [13] appears, read: Table 7, 72 hours, MTS/PMS, mean ± standard deviation, read-out: Anti-proliferation activity LnCaP.
The mark [14] stands for this setting: Table 7, 72 hours, MTS/PMS, mean ± standard deviation, read-out: Anti-proliferation activity PC-3.
[15] abbreviates: Table 2, n = 3, read-out: IC50 MCF-7.
Setting [16] is: Table 2, n = 3, read-out: IC50 SkBr3.
The mark [17] stands for this setting: Table 2, n = 3, read-out: IC50 PC-3.
Where [18] appears, read: Table 2, n = 3, read-out: IC50 LNCaP.
The mark [19] stands for this setting: Table 5, heterocyclic analogues, n = 3.

Like-named read-outs stand apart in the source and are kept apart here.

In the case of `CO[C@@H]1[C@@H](O)[C@@H](O)[C@H](Oc2ccc3cc(NC(=O)c4cc5ccccc5[nH]4)c(=O)oc3c2-c2ccccc2)OC1(C)C` [26n, N-(7-((2R,3R,4S,5R)-3,4-dihydroxy-5-methoxy-6,6-dimethyltetrahydro-2H-pyran-2-yloxy)-2-oxo-8-phenyl-2H-chromen-3-yl)-1H-indole-2-carboxamide], the IC50 in experiment [1] (setting [7]) was determined as 22.9 ± 2.1 µM; in experiment [2] (setting [8]), 38.8 ± 8.3 µM; in experiment [3] (setting [9]), 27.6 ± 10.8 µM; in experiment [4] (setting [10]), 28 ± 12.1 µM. Moreover, the “fold less active than the 8-methyl derivative” value in experiment [1] is 40 fold.
In the case of `COc1c(O[C@@H]2OC(C)(C)[C@H](OC)[C@@H](O)[C@H]2O)ccc2cc(NC(=O)c3cc4ccccc4[nH]3)c(=O)oc12` [26o, N-(7-((2S,3R,4S,5R)-3,4-dihydroxy-5-methoxy-6,6-dimethyltetrahydro-2H-pyran-2-yloxy)-8-methoxy-2-oxo-2H-chromen-3-yl)-1H-indole-2-carboxamide], the IC50 is greater than 100 µM in experiment [1] (setting [7]), 9.7 ± 1 µM in experiment [2] (setting [8]), greater than 100 µM in experiment [3] (setting [9]) and greater than 100 µM in experiment [4] (setting [10]).
For the compound `CCc1c(O[C@@H]2OC(C)(C)[C@H](OC)[C@@H](O)[C@H]2O)ccc2cc(NC(=O)c3cc4ccccc4[nH]3)c(=O)oc12` [26p, N-(7-((2R,3R,4S,5R)-3,4-dihydroxy-5-methoxy-6,6-dimethyltetrahydro-2H-pyran-2-yloxy)-8-ethyl-2-oxo-2H-chromen-3-yl)-1H-indole-2-carboxamide], the IC50 was 4.3 ± 2.5 µM in experiment [1] (setting [7]), 4.3 ± 3.4 µM in experiment [2] (setting [8]), greater than 100 µM in experiment [3] (setting [9]) and greater than 100 µM in experiment [4] (setting [10]). Besides, the “fold less active than the 8-methyl derivative” value in experiment [1] turned out to be 7 fold.
For `COc1ccc(CN(C(=O)c2ccc(OC)c(-c3cccc(OC)c3)c2)c2cnc3cc(O[C@@H]4OC(C)(C)[C@H](OC)[C@@H](O)[C@H]4O)ccc3c2)cc1` [42a, N-(4-Methoxybenzyl)-N-(7-((2R,3R,4S,5R)-3,4-dihydroxy-5-methoxy-6,6-dimethyl-tetrahydro-2H-pyran-2-yloxy)quinolin-3-yl)-4-methoxy-3-(3-methoxyphenyl)-benzamide], the IC50 in experiment [1] (setting [11]), in experiment [2] (setting [12]), in experiment [3] (setting [13]) and in experiment [4] (setting [14]) was greater than 100 µM in each case.
On to `COc1cccc(-c2cc(C(=O)Nc3cnc4cc(O[C@@H]5OC(C)(C)[C@H](OC)[C@@H](O)[C@H]5O)ccc4c3)ccc2OC)c1` [42b, N-(7-((2R,3R,4S,5R)-3,4-Dihydroxy-5-methoxy-6,6-dimethyl-tetrahydro-2H-pyran-2-yloxy)quinolin-3-yl)-4-methoxy-3-(3-methoxyphenyl)-benzamide], for which the IC50 was 13.1 ± 4.1 µM in experiment [1] (setting [11]), 16.5 ± 6.2 µM in experiment [2] (setting [12]), 14.2 ± 0.4 µM in experiment [3] (setting [13]) and 17.6 ± 4.6 µM in experiment [4] (setting [14]).
As for `COc1ccc(CN(C(=O)c2ccc(OC)c(-c3cccc(OC)c3)c2)c2ccc3cc(O[C@@H]4OC(C)(C)[C@H](OC)[C@@H](O)[C@H]4O)ccc3c2)cc1` [42c, N-(4-Methoxybenzyl)-N-(6-((2R,3R,4S,5R)-3,4-dihydroxy-5-methoxy-6,6-dimethyl-tetrahydro-2H-pyran-2-yloxy)naphthalen-2-yl)-4-methoxy-3-(3-methoxyphenyl)-benzamide], the IC50 in experiment [1] (setting [11]), in experiment [2] (setting [12]), in experiment [3] (setting [13]) and in experiment [4] (setting [14]) was greater than 100 µM each time.
As for `COc1cccc(-c2cc(C(=O)Nc3ccc4cc(O[C@@H]5OC(C)(C)[C@H](OC)[C@@H](O)[C@H]5O)ccc4c3)ccc2OC)c1` [42d, N-(6-((2R,3R,4S,5R)-3,4-Dihydroxy-5-methoxy-6,6-dimethyl-tetrahydro-2H-pyran-2-yloxy)naphthalen-2-yl)-4-methoxy-3-(3-methoxyphenyl)-benzamide], the IC50 in experiment [1] (setting [11]) was 46.4 ± 5.3 µM; in experiment [2] (setting [12]), 38.9 ± 2.4 µM; in experiment [3] (setting [13]) it was 19.6 ± 1.6 µM; in experiment [4] (setting [14]) it was 10.9 ± 0.7 µM.
Consider `COc1ccccc1C(=O)Nc1cc2ccc(O[C@@H]3OC(C)(C)[C@H](OC)[C@@H](O)[C@H]3O)c(C)c2oc1=O` [compound 9, N-(7-((2R,3R,4S,5R)-3,4-Dihydroxy-5-methoxy-6,6-dimethyltetrahydro-2H-pyran-2-yloxy)-8-methyl-2-oxo-2H-chromen-3-yl)-2-methoxybenzamide], for which the IC50 in experiment [1] (setting [15]) is 5.3 ± 1.3 µM; in experiment [5] (Table 2, n = 3), 35.8 ± 3.4 µM; in experiment [6] (Table 2, n = 3), greater than 100 µM; in experiment [2] (setting [16]), greater than 100 µM; in experiment [4] (setting [17]) it was 9.1 ± 0.5 µM.
`COc1cccc(C(=O)Nc2cc3ccc(O[C@@H]4OC(C)(C)[C@H](OC)[C@@H](O)[C@H]4O)c(C)c3oc2=O)c1` [compound 10, N-(7-((2R,3R,4S,5R)-3,4-Dihydroxy-5-methoxy-6,6-dimethyltetrahydro-2H-pyran-2-yloxy)-8-methyl-2-oxo-2H-chromen-3-yl)-3-methoxybenzamide]: the IC50 is 5.6 ± 2.5 µM in experiment [1] (setting [15]); 2.8 ± 0.8 µM in experiment [5] (Table 2, n = 3); 1.9 ± 0.6 µM in experiment [6] (Table 2, n = 3); greater than 100 µM in experiment [2] (setting [16]); 21.7 ± 2 µM in experiment [3] (setting [18]).
Take `CO[C@@H]1[C@@H](O)[C@@H](O)[C@H](Oc2ccc3cc(NC(=O)c4ccccc4[N+](=O)[O-])c(=O)oc3c2C)OC1(C)C` [compound 15, N-(7-((2R,3R,4S,5R)-3,4-Dihydroxy-5-methoxy-6,6-dimethyltetrahydro-2H-pyran-2-yloxy)-8-methyl-2-oxo-2H-chromen-3-yl)-2-nitrobenzamide]: the IC50 in experiment [1] (setting [15]) amounted to 28.7 ± 4.8 µM; in experiment [5] (Table 2, n = 3), 20.1 ± 4.7 µM; in experiment [6] (Table 2, n = 3) it was 44.3 ± 4.8 µM; in experiment [2] (setting [16]), 21.8 ± 0.8 µM; in experiment [3] (setting [18]), 16.8 ± 0.8 µM.
Take `CO[C@@H]1[C@@H](O)[C@@H](O)[C@H](Oc2ccc3cc(NC(=O)c4cccc([N+](=O)[O-])c4)c(=O)oc3c2C)OC1(C)C` [compound 16, N-(7-((2R,3R,4S,5R)-3,4-Dihydroxy-5-methoxy-6,6-dimethyltetrahydro-2H-pyran-2-yloxy)-8-methyl-2-oxo-2H-chromen-3-yl)-3-nitrobenzamide]: the IC50 is greater than 100 µM in experiment [1] (setting [15]); greater than 100 µM in experiment [5] (Table 2, n = 3); greater than 100 µM in experiment [6] (Table 2, n = 3); greater than 100 µM in experiment [2] (setting [16]); greater than 100 µM in experiment [4] (setting [17]).
In the case of `CO[C@@H]1[C@@H](O)[C@@H](O)[C@H](Oc2ccc3cc(NC(=O)OCc4ccccc4)c(=O)oc3c2C)OC1(C)C` [compound 24, Benzyl 7-((2R,3R,4S,5R)-3,4-dihydroxy-5-methoxy-6,6-dimethyltetrahydro-2H-pyran-2-yloxy)-8-methyl-2-oxo-2H-chromen-3-ylcarbamate], the IC50 in experiment [1] (Table 3, n = 3, read-out: IC50 MCF-7) was found to be 12.1 ± 0.1 µM; in experiment [5] (Table 3, n = 3) it was 11.4 ± 0.6 µM; in experiment [6] (Table 3, n = 3), 13 ± 0.2 µM; in experiment [2] (Table 3, n = 3, read-out: IC50 SkBr3), 17.8 ± 2.4 µM.
With `CO[C@@H]1[C@@H](O)[C@@H](O)[C@H](Oc2ccc3cc(NC(=O)c4ccncc4)c(=O)oc3c2C)OC1(C)C` [compound 42, N-(7-((2R,3R,4S,5R)-3,4-Dihydroxy-5-methoxy-6,6-dimethyltetrahydro-2H-pyran-2-yloxy)-8-methyl-2-oxo-2H-chromen-3-yl)isonicotinamide], the IC50 was greater than 100 µM in experiment [1] (Table 5, heterocyclic analogues, n = 3, read-out: IC50 MCF-7); 19.2 ± 2.5 µM in experiment [5] (setting [19]); greater than 100 µM in experiment [6] (setting [19]); greater than 100 µM in experiment [2] (Table 5, heterocyclic analogues, n = 3, read-out: IC50 SkBr3); 34.8 ± 16 µM in experiment [3] (Table 5, heterocyclic analogues, n = 3, read-out: IC50 LNCaP).
